Measured values reported in patent publication US10092526B2, “Compositions and methods for treating respiratory injury or disease” (University of Pittsburgh—Of the Commonwealth System of …, priority 2013, dated 2018).
Converted amounts (≈) assume the structure as drawn. Like-named read-outs stand apart in the source and are kept apart here.

Assays:
TNFα cytokine release = assay: LPS-induced TNFα cytokine release in PBMC (ELISA); type: cell-based; conditions: LPS 50 ng/ml, 16 hours, TNFα release by ELISA
Experimental: Peripheral blood mononuclear cells (PBMC) (0.2 ml at 0.3×10^6/ml) were treated with lipopolysaccharide (LPS) (50 ng/ml) for 16 hours concurrently with each compound tested at different concentrations. TNFα cytokine release was monitored by ELISA. These concentrations were used to calculate the IC50.

[1] = U937 monocyte cytotoxicity, Trypan blue staining; type: cell-based; conditions: human
Experimental: (§1) U937 monocytes (0.2 ml at 0.3 x 10^6/ml) were treated with each compound at different concentrations for 16 hours. The cells were then stained with Trypan blue to identify dead cells, and to calculate the LC50. Combined values were used to generate therapeutic indexes (TI)=LC50/IC50.

U937 monocytes = assay: U937 monocyte cytotoxicity, Trypan blue staining; type: cell-based
Experimental: as §1

IL1β = assay: IC50IL1β measurements (FIG. 1); type: cell-based
[2] = test system: Pseudomonas aeruginosa strain PA103; assay: Pseudomonas induced pneumonia, Compound 014 (Example 5); type: in vivo, mice; conditions: 30 μg or 150 μg IP
Experimental: Mice were administered either 30 μg or 150 μg of Compound 014 by IP injection, and these mice were then challenged with Pseudomonas aeruginosa strain PA103 (2.5×10^4 CFU/mouse, i.t.) for 18 hours. Mice were monitored on a FlexiVent to measure lung mechanics throughout the procedure. The mice were then sacrificed and lungs were lavaged with saline, harvested, and then homogenized. Lavage cells were processed with cytosin and stained with May-Grunwald and Geimsa, and H&E staining was performed on lung samples. Lavage protein, cell count, and cytokine secretion were measured. (n=4 mice/group, *P<0.05 versus PA103 versus Vehicle)

[3] = test system: cigarette smoke induced chronic lung inflammation; assay: Smoke induced chronic lung inflammation (Example 6); type: in vivo, mice; conditions: cigarette smoke 5 weeks, single 100 ug dose i.p., 18 hours
Experimental: Mice were exposed to cigarette smoke for 5 weeks before a single 100 ug dose of Compound 014 was administered by i.p. injection. The mice were euthanized 18 hours later, and lungs were lavaged with saline, harvested, and then homogenized. Lavage protein, cell counts and cytokine secretion were measured. (n=3 mice/group, *P<0.05 versus control)

IMQ induced psoriasis = IMQ induced psoriasis model (Example 7); type: in vivo, BALB/c mice
Description: An objective scoring system was developed based on the clinical Psoriasis Area and Severity Index (PASI), except that for the mouse model the affected skin area is not taken into account in the overall score. Erythema and scaling were scored independently on a scale from 0 to 4: 0, none; 1, slight; 2, moderate; 3, marked; 4, very marked. The level of erythema was scored using a scoring table with red taints. At day 7, mice were euthanized and spleens were removed for weight measuring.
Female BALB/c mice at 8 to 11 wk of age received a daily topical dose of 62.5 mg of commercially available IMQ cream (5%) (Aldara; 3M Pharmaceuticals) on the shaved back and the right ear for 5 or 6 consecutive days, translating in a daily dose of 3.125 mg of the active compound. Control mice were treated similarly with a control vehicle cream (Vaseline Lanette cream; Fagron). BC-1261 (also referred to herein as compound 014) were either given in drinking water or applied topically daily. To score the severity of inflammation of the back skin, an objective scoring system was developed based on the clinical Psoriasis Area and Severity Index (PASI), except that for the mouse model the affected skin area is not taken into account in the overall score. Erythema and scaling were scored independently on a scale from 0 to 4: 0, none; 1, slight; 2, moderate; 3, marked; 4, very marked. The level of erythema was scored using a scoring table with red taints. At day 7, mice were euthanized and spleens were removed for weight measuring. Skin and ear sample were also collected for H&E staining and epidermis thickness were measured and graphed. n=5-10 per group, *p<0.05.

[4] = test system: Dexamethasone-induced muscle atrophy; assay: Dexamethasone induced muscle myopathy model (Example 8); type: in vivo, C57BL mice
Experimental: C57BL mice were given daily i.p. injection of 0.1 ml of vehicle or Dexamethasone (10 mg/kg/d) for 14 days. Some mice were also given BC-1261 (also referred to herein as compound 014) in drinking water with estimated dose of 0.5, 2 and 5 mg/kg/d. Mice were then sacrificed and (tibialis anterior)TA muscle were removed, photographed (A), weighted (C), processed for H&E staining (B) and protein immunoblotting (E).

[5] = test system: lung transplant rejection; assay: Lung transplant acute rejection model (Example 9); type: in vivo, mouse; conditions: 5 mg/kg/d i.p. 2 days then drinking water 5 mg/kg/d 5 days
Experimental: Left lung from BALB/C mouse was surgically removed and transplanted into C57/BL mouse. Mice were given vehicle or BC-1261 (5 mg/kg/d i.p. injection) for 2 days until fully recovered. After that, BC-1261 (also referred to herein as compound 014) was administered through drinking water (5 mg/kg/d) for additional 5 days. Mice were then sacrificed, and the transplanted lungs were removed for H&E staining.

[6] = U937 monocytes, 16 hours, Trypan blue dead cells, read-out: LC50
[7] = therapeutic index (TI)=LC50/IC50
[8] = PA103, vs vehicle control infected mice, FIG. 9
[9] = Dexamethasone 10 mg/kg/d i.p. 14 days

SMILES: c1ccc(-c2ccc(CNCCCCNCc3ccc(-c4ccccn4)cc3)cc2)nc1 [Compound 010]
- IC50 (TNFα cytokine release): 1.5 µg/mL (≈ 3.55 µM)
- CC50 at 16 h [1, 6]: 22 µg/mL (≈ 52.1 µM)
- TI (U937 monocytes; [7]): 14.7
- IC50 (IL1β): 1.5 µg/mL (≈ 3.55 µM)

SMILES: Fc1cc(CNCCCCNCc2ccc(N3CCCC3)c(F)c2)ccc1N1CCCC1 [Compound 018]
- IC50 (TNFα cytokine release): 0.1 µg/mL (≈ 0.226 µM)
- CC50 at 16 h [1, 6]: 0.4 µg/mL (≈ 0.904 µM)
- TI (U937 monocytes; [7]): 4

SMILES: c1ccc(-c2ccc(CNCCNCc3ccc(-c4ccccn4)cc3)cc2)nc1 [Compound 005]
- IC50 (TNFα cytokine release): 0.9 µg/mL (≈ 2.28 µM)
- TI (U937 monocytes; [7]): 96
- IC50 (IL1β): 0.9 µg/mL (≈ 2.28 µM)

SMILES: c1cnc(-c2ccc(CNCCNCc3ccc(-c4ncccn4)cc3)cc2)nc1 [Compound 014]
- IC50 (TNFα cytokine release): 0.4 µg/mL (≈ 1.01 µM)
- CC50 at 16 h [1, 6]: 410 µg/mL (≈ 1030 µM)
- TI (U937 monocytes; [7]): 1025
- IC50 (IL1β): 0.4 µg/mL (≈ 1.01 µM)
- adverse effects of Pseudomonas on lung mechanics ([2]; PA103 2.5×10^4 CFU/mouse i.t., 18 hours): significantly ameliorated
- lavage cell counts [2, 8]: reduced
- lavage protein concentration [2, 8]: reduced
- lavage pro-inflammatory cytokine levels ([2]; PA103, vs vehicle control infected mice, FIG. 9C): reduction
- cell infiltrates (H&E staining) ([2]; PA103, vs vehicle control mice, FIG. 11): significantly reduced
- neutrophils in May-Grunwald and Geimsa smears ([2]; PA103, vs vehicle control smears, FIG. 10): significantly fewer neutrophils
- lavage cell counts ([3]; FIG. 12): reduced
- lavage protein concentration ([3]; FIG. 12): reduced
- lavage pro-inflammatory cytokine levels ([3]; FIG. 12C): reduction
- ear thickness (IMQ induced psoriasis; IMQ model): reduces
- gross appearance (IMQ induced psoriasis; IMQ model): reduces
- spleen weight (IMQ induced psoriasis; IMQ model, day 7): reduces
- psoriasis index (IMQ induced psoriasis; IMQ model, score based on PASI): reduces
- IMQ induced psoriasis (IMQ induced psoriasis; in drinking water or applied topically daily, BALB/C mice, FIGS. 13-17): effectively ameliorates
- TRAF6 protein in TA muscle (immunoblotting) [4, 9]: degrading up-regulated TRAF6 protein
- muscle wasting (cross sectional measurements, TA muscle H&E staining) [4, 9]: prevented
- Dexamethasone-induced muscle atrophy ([4]; drinking water 0.5, 2 and 5 mg/kg/d, Dexamethasone 10 mg/kg/d i.p. 14 days): attenuates
- dexamethasone-induced tibialis anterior muscle loss ([4]; even at 0.5 mg/kg/d in drinking water): significantly ameliorates
- neutrophilia infiltrates induced by lung transplant rejection [5]: effectively ameliorates
- transplanted lung H&E staining, infiltrates ([5]; vs vehicle group): completely protected lung

SMILES: c1cc(N2CCCC2)ccc1CNCCNCc1ccc(N2CCCC2)cc1 [Compound 002]
- IC50 (TNFα cytokine release): 0.6 µg/mL (≈ 1.58 µM)
- CC50 at 16 h [1, 6]: 7 µg/mL (≈ 18.5 µM)
- TI (U937 monocytes; [7]): 11

SMILES: c1csc(-c2ccc(CNCCNCc3ccc(-c4cccs4)cc3)cc2)c1 [Compound 012]
- IC50 (TNFα cytokine release): 1.1 µg/mL (≈ 2.72 µM)
- CC50 at 16 h [1, 6]: 1.8 µg/mL (≈ 4.45 µM)
- TI (U937 monocytes; [7]): 1.6

SMILES: c1cc(N2CCCCC2)ccc1CNCCNCc1ccc(N2CCCCC2)cc1 [Compound 004]
- IC50 (TNFα cytokine release): 0.8 µg/mL (≈ 1.97 µM)
- CC50 at 16 h [1, 6]: 27 µg/mL (≈ 66.4 µM)
- TI (U937 monocytes; [7]): 33
- IC50 (IL1β): 0.8 µg/mL (≈ 1.97 µM)

SMILES: c1cnn(-c2ccc(CNCCNCc3ccc(-n4cccn4)cc3)cc2)c1 [Compound 009]
- IC50 (TNFα cytokine release): 1.4 µg/mL (≈ 3.76 µM)
- CC50 at 16 h [1, 6]: 80 µg/mL (≈ 215 µM)
- TI (U937 monocytes; [7]): 57

SMILES: c1cn(-c2ccc(CNCCNCc3ccc(-n4ccnc4)cc3)cc2)cn1 [Compound 003]
- IC50 (TNFα cytokine release): 0.7 µg/mL (≈ 1.88 µM)
- CC50 at 16 h [1, 6]: 130 µg/mL (≈ 349 µM)
- TI (U937 monocytes; [7]): 142

SMILES: c1ccc(-c2ccc(CNCCNCc3ccc(-c4ccccc4)cc3)cc2)cc1 [Compound 015]
- IC50 (TNFα cytokine release): 2 µg/mL (≈ 5.09 µM)
- CC50 at 16 h [1, 6]: 2 µg/mL (≈ 5.09 µM)
- TI (U937 monocytes; [7]): 1
- IC50 (IL1β): 2 µg/mL (≈ 5.09 µM)

SMILES: Cc1cc(N2CCCC2)ccc1CNCCCCNCc1ccc(N2CCCC2)cc1C [Compound 020]
- IC50 (TNFα cytokine release): 0.2 µg/mL (≈ 0.46 µM)
- CC50 at 16 h [1, 6]: 2 µg/mL (≈ 4.6 µM)
- TI (U937 monocytes; [7]): 10

SMILES: c1cc(N2CCCC2)ccc1CNCCCNCc1ccc(N2CCCC2)cc1 [Compound 007]
- IC50 (TNFα cytokine release): 1.1 µg/mL (≈ 2.8 µM)
- CC50 at 16 h [1, 6]: 3.2 µg/mL (≈ 8.15 µM)
- TI (U937 monocytes; [7]): 2.9

SMILES: c1cc(N2CCCC2)ccc1CNCCCCNCc1ccc(N2CCCC2)cc1 [Compound 006]
- IC50 (TNFα cytokine release): 1 µg/mL (≈ 2.46 µM)
- CC50 at 16 h [1, 6]: 1 µg/mL (≈ 2.46 µM)
- TI (U937 monocytes; [7]): 1

SMILES: Cc1cc(CNCCCCNCc2ccc(N3CCCC3)c(C)c2)ccc1N1CCCC1 [Compound 019]
- IC50 (TNFα cytokine release): 0.5 µg/mL (≈ 1.15 µM)
- CC50 at 16 h [1, 6]: 1 µg/mL (≈ 2.3 µM)
- TI (U937 monocytes; [7]): 2

SMILES: c1ccc(CNCCNCc2ccc(-c3ccccn3)cc2)nc1 [Compound 008]
- IC50 (TNFα cytokine release): 1.5 µg/mL (≈ 4.71 µM)
- CC50 at 16 h [1, 6]: 45 µg/mL (≈ 141 µM)
- TI (U937 monocytes; [7]): 30

SMILES: c1csc(-c2ccc(CNCCNCc3ccc(-c4nccs4)cc3)cc2)n1 [Compound 011]
- IC50 (TNFα cytokine release): 0.4 µg/mL (≈ 0.984 µM)
- CC50 at 16 h [1, 6]: 8.5 µg/mL (≈ 20.9 µM)
- TI (U937 monocytes; [7]): 21.3

SMILES: c1ccc(CNCCNCc2ccccc2)cc1 [Benzathine, reference compound]
- IC50 (TNFα cytokine release): 25 µg/mL (≈ 104 µM)
- CC50 at 16 h [1]: 400 µg/mL (≈ 1660 µM)
- TI (U937 monocytes; human, 16 h): 16
- IC50 (IL1β): 25 µg/mL (≈ 104 µM)

SMILES: c1cc(N2CCCC2)ccc1CNCCCCCNCc1ccc(N2CCCC2)cc1 [Compound 017]
- IC50 (TNFα cytokine release): 0.2 µg/mL (≈ 0.475 µM)
- CC50 at 16 h [1, 6]: 4 µg/mL (≈ 9.51 µM)
- TI (U937 monocytes; [7]): 20

SMILES: c1cnc(-c2ccc(CNCCCCNCc3ccc(-c4ncccn4)cc3)cc2)nc1 [Compound 016]
- IC50 (TNFα cytokine release): 4 µg/mL (≈ 9.42 µM)
- CC50 at 16 h [1, 6]: > 100 µg/mL
- TI (U937 monocytes; [7]): >25

SMILES: c1cc(N2CCOCC2)ccc1CNCCNCc1ccc(N2CCOCC2)cc1 [Compound 001]
- IC50 (TNFα cytokine release): 20 µg/mL (≈ 48.7 µM)
- CC50 at 16 h [1, 6]: 260 µg/mL (≈ 633 µM)
- TI (U937 monocytes; [7]): 13

SMILES: c1coc(-c2ccc(CNCCNCc3ccc(-c4ccco4)cc3)cc2)c1 [Compound 013]
- IC50 (TNFα cytokine release): 1.9 µg/mL (≈ 5.1 µM)
- CC50 at 16 h [1, 6]: 5.5 µg/mL (≈ 14.8 µM)
- TI (U937 monocytes; [7]): 2.8
